Assay results published in PMC10916402, “Meropenem-ANT3310, a unique β-lactam-β-lactamase inhibitor combination with expanded antibacterial spectrum against Gram-negative pathogens including carbapenem-resistant Acinetobacter baumannii” (Antimicrobial Agents and Chemotherapy, 2024).
Where “and” joins values, the source holds several entries; their conditions need not be identical. Identical values can stand only once.

How the values were obtained:
[1] = test system: A. baumannii clinical isolates; assay: Broth microdilution MIC, A. baumannii clinical isolates; format: cell-based, Acinetobacter baumannii; conditions: for CLSI % Res: CLSI BP, for MEM-ANT3310 % at ≥16 µg/mL; for EUCAST % Res / EUCAST % Sus: EUCAST BP; for Number of isolates inhibited at MIC of >16 µg/mL: footnote c
Experimental: (§1) All isolates were randomly selected from the frozen culture collection of IHMA collected in 2018 and 2019. Matrix-assisted laser desorption ionization-time of flight mass spectrometry was used to confirm the identity of the organisms tested (Bruker Daltonics, Bremen, Germany).
(§2) MICs for all antimicrobial agents were determined at IHMA by broth microdilution in accordance with both CLSI ([17]) and EUCAST ([18]) guidelines. Microtiter panels were prepared by IHMA and stored at −70°C in cation-adjusted Mueller Hinton broth (CAMHB) (Becton Dickinson). Iron-depleted CAMHB was used to test cefiderocol. Panels containing ANT3310 were prepared fresh on the day of testing. […] MIC values corresponded to the first well with no visible growth. Quality control testing was performed on each day of testing with E. coli ATCC 25922, P. aeruginosa ATCC 27853, K. pneumoniae ATCC 700603 and BAA 1705, and A. baumannii NCTC 13304. MICs were interpreted using 2023 CLSI ([17]) and EUCAST ([18]) BPs.

[2] = test system: carbapenem-resistant Acinetobacter baumannii (CRAB) clinical isolates; assay: Broth microdilution MIC, CRAB isolates; format: cell-based; conditions: for CLSI % Res / EUCAST % Res / EUCAST % Sus / Number of isolates inhibited at MIC of >16 µg/mL: CRAB; for CLSI % Res: CLSI BP, for MEM-ANT3310 % at ≥16 µg/mL; for EUCAST % Res / EUCAST % Sus: EUCAST BP; for Number of isolates inhibited at MIC of >16 µg/mL: footnote c
Experimental: as §1, §2

[3] = test system: KPC-producing Enterobacterales (KPC-CRE); assay: organism not typed; format: cell-based; conditions: 180 KPC-producing Enterobacterales
Experimental: as §1, §2

[4] = test system: OXA-producing Enterobacterales (OXA-CRE); assay: organism not typed; format: cell-based; conditions: 252 OXA-producing Enterobacterales
Experimental: as §1, §2

[5] = test system: P. aeruginosa clinical isolates; assay: Broth microdilution MIC, P. aeruginosa clinical isolates; format: cell-based, Pseudomonas aeruginosa; conditions: 502 P. aeruginosa, 2019 global collection
Experimental: as §1, §2

[6] = 2018 Global collection, All A. baumannii, N 500
[7] = 2019 Global collection, All A. baumannii, N 405
[8] = CLSI BP, for MEM-ANT3310 % at ≥16 µg/mL

colistin was tested, and the MIC50 [1, 6] was 0.25 µg/mL, the MIC90 [1, 6] was 0.5 µg/mL and the “Number of isolates inhibited at MIC of 0.25 µg/mL” value [1, 6] was 287. The “Number of isolates inhibited at MIC of 0.5 µg/mL” value [1, 6] was 165, the “Number of isolates inhibited at MIC of 1 µg/mL” value [1, 6] was 15 and the “Number of isolates inhibited at MIC of 4 µg/mL” value [1, 6] was 3. The “Number of isolates inhibited at MIC of 8 µg/mL” value [1, 6] was 2, the “Number of isolates inhibited at MIC of 16 µg/mL” value [1, 6] was 2 and the “Number of isolates inhibited at MIC of ≤0.125 µg/mL” value [1, 6] was 22. The “CLSI % Res” value [1, 6] was 2.2%, the “EUCAST % Res” value [1, 6] was 2.2% and the “EUCAST % Sus” value [1, 6] was 97.8%. For the same substance, the “Number of isolates inhibited at MIC of >16 µg/mL” value [1, 6] was 4^c, the MIC50 [1, 7] was 0.5 µg/mL and the MIC90 [1, 7] was 1 µg/mL. For the same substance, the “Number of isolates inhibited at MIC of 0.25 µg/mL” value [1, 7] was 32, the “Number of isolates inhibited at MIC of 0.5 µg/mL” value [1, 7] was 296 and the “Number of isolates inhibited at MIC of 1 µg/mL” value [1, 7] was 66. For the same substance, the “Number of isolates inhibited at MIC of 2 µg/mL” value [1, 7] was 5, the “Number of isolates inhibited at MIC of 4 µg/mL” value [1, 7] was 1 and the “Number of isolates inhibited at MIC of 16 µg/mL” value [1, 7] was 1. The “CLSI % Res” value [1, 7] was 1.5%, the “EUCAST % Res” value [1, 7] was 1.5% and the “EUCAST % Sus” value [1, 7] was 98.5%. The “Number of isolates inhibited at MIC of >16 µg/mL” value [1, 7] was 4^c, the “% susceptible at EUCAST BP” value ([1]; A. baumannii, 2018/2019 collections) was 98.1% and the MIC90 ([1]; A. baumannii, one or both of the 2018/2019 collections) was 1 µg/mL. For the same substance, the MIC50 [2] was 0.25 µg/mL and 0.5 µg/mL, the MIC90 [2] was 0.5 µg/mL and 1 µg/mL and the “Number of isolates inhibited at MIC of 4 µg/mL” value [2] was 2. The “Number of isolates inhibited at MIC of 8 µg/mL” value [2] was 2, the “Number of isolates inhibited at MIC of 16 µg/mL” value [2] was 2 and the “Number of isolates inhibited at MIC of ≤0.125 µg/mL” value [2] was 13. For the same substance, the “CLSI % Res” value ([2]; 2018 Global collection, N 363) was 2.8%, the “EUCAST % Res” value ([2]; 2018 Global collection, N 363) was 2.8% and the “EUCAST % Sus” value ([2]; 2018 Global collection, N 363) was 97.2%. The “Number of isolates inhibited at MIC of >16 µg/mL” value ([2]; 2018 Global collection, N 363) was 4^c, the “Number of isolates inhibited at MIC of 2 µg/mL” value ([2]; 2019 Global collection, CRAB (MEM MICs >4 µg/mL), N 340) was 4 and the “CLSI % Res” value ([2]; 2019 Global collection, N 340) was 1.2%. For the same substance, the “EUCAST % Res” value ([2]; 2019 Global collection, N 340) was 1.2%, the “EUCAST % Sus” value ([2]; 2019 Global collection, N 340) was 98.8% and the “Number of isolates inhibited at MIC of >16 µg/mL” value ([2]; 2019 Global collection, N 340) was 4^c. For the same substance, the MIC50 ([3]; 2018 global collection) was 0.25 µg/mL, the MIC90 ([3]; 2018 global collection) was 16 µg/mL and the “CLSI % Res” value [3, 8] was 26.7%. For the same substance, the “EUCAST % Res” value ([3]; EUCAST BP) was 26.7%, the “EUCAST % Sus” value ([3]; EUCAST BP) was 73.3% and the MIC50 ([4]; 2018 global collection) was 0.25 µg/mL. For the same substance, the MIC90 ([4]; 2018 global collection) was 8 µg/mL, the “CLSI % Res” value [4, 8] was 23.8% and the “EUCAST % Res” value ([4]; EUCAST BP) was 23.8%. For the same substance, the “EUCAST % Sus” value ([4]; EUCAST BP) was 76.2%, the MIC50 [5] was 1 µg/mL and the MIC90 [5] was 1 µg/mL. The “Number of isolates inhibited at MIC of 0.25 µg/mL” value [5] was 4, the “Number of isolates inhibited at MIC of 0.5 µg/mL” value [5] was 21 and the “Number of isolates inhibited at MIC of 1 µg/mL” value [5] was 452. The “Number of isolates inhibited at MIC of 2 µg/mL” value [5] was 21, the “Number of isolates inhibited at MIC of 4 µg/mL” value [5] was 2 and the “Number of isolates inhibited at MIC of 16 µg/mL” value [5] was 1. For the same substance, the “Number of isolates inhibited at MIC of ≤0.125 µg/mL” value [5] was 1.
